Read-outs that look alike come from different tables or passages of the source.
Columns and labels:
[1] = Urinary excretion of flavanone-derived metabolites after single intake of lemon or orange extract (UPLC-ESI-QTOF-MS); format: in vivo, human; conditions: for Urinary excretion F1: urine fraction 0-4 h; for Urinary excretion F1 / Urinary excretion Total F / Urinary excretion F2 / Urinary excretion F3 / Urinary excretion F4: mean ± SD; for Urinary excretion Total F: sum of fractions F1-F4 (24 h); for Urinary excretion F2: urine fraction 4-8 h; for Urinary excretion F3: urine fraction 8-10 h; for Urinary excretion F4: urine fraction 10-24 h; for Occurrence Urine LE (number of volunteers in whom the metabolite was detected): after consuming lemon extract; for Occurrence Urine LE (number of volunteers in whom the metabolite was detected) / Occurrence Urine OE (number of volunteers in whom the metabolite was detected): n = 16 volunteers; for Occurrence Urine OE (number of volunteers in whom the metabolite was detected): after consuming orange extract
Excerpt: Secondary endpoints involved the evaluation of post-prandial changes in several biomarkers dealing with metabolism, inflammation, and oxidative stress after a high-fat-high-sugars meal. The design was a randomized pharmacokinetic, double-blind, crossover, single-dose trial consisted of 2 test-phases. The volunteers were randomly allocated into two groups using a computerized random number list. Each group consumed one of the citrus extracts by following a test-phase that lasted for 1 day for blood sampling and urine collection, a 2-week washout period between each test phase, and crossover before consuming the other extract. The volunteers were instructed to avoid the consumption of flavanone-containing products, from a list provided by the researchers, for 1 week before the study and during the wash-out phase (citrus fruit juices, tomatoes, tomato-based sauces (like ‘ketchup’), peppers, almonds, etc.). […] The 3 capsules provided a total of 1.95 g orange extract, containing 260 mg hesperidin, and 3.1 g lemon extract, containing 260 mg eriocitrin. […] Untreated urine samples were aliquoted and frozen at −80 °C for up to 4 weeks until analyses, avoiding freeze-thaw cycles to avoid metabolites’ deconjugation. Moreover, three measurements of blood pressure and heart rate were taken before each time-point of blood withdrawal. […] A previously validated method for analyzing phenolic metabolites in biological samples, including flavanone-derived metabolites, was used. […] After centrifugation at 14,000× g for 10 min at 4 °C, the supernatant was evaporated in a speed vacuum concentrator. Finally, samples were re-suspended in 100 µL of methanol, filtered through a 0.22 µm cellulose filters before analysis by UPLC- ESI-QTOF-MS. […] A targeted screening strategy was applied to identify metabolites that could be present after consuming the citrus extracts. Twenty-eight possible compounds were browsed in all the samples. The list of compounds included the polyphenols present in the extracts, with particular focus on the flavanone rutinosides hesperidin and eriocitrin, their respective aglycones hesperetin, and eriodictyol, as well as their derived phase-II conjugates (glucuronides, sulfates, sulfoglucuronides, etc.). The exact mass of each proposed compound was extracted using an extraction window of 0.01 m/z. The metabolites hesperetin 7-O-glucuronide, hesperetin 3′-O-glucuronide, hesperetin 3-O-sulfate, naringenin 4′-O-glucuronide, and naringenin 7′-O-glucuronide were quantified with their corresponding standards. […] The parent phenolic compounds were quantified with their corresponding standards. In the case of some relevant conjugated metabolites, which standards were not available (eriodictyol and homoeriodictyol conjugates), their quantification was achieved by using relative response factors (RRFs) as previously described. Briefly, RRFs are useful to check the different responses of metabolites in the mass spectrometer vs. their UV signal. While the ionization response of free vs. conjugated forms is usually very different, their UV signal response is quite similar. To this purpose, we injected in a HPLC-DAD-ESI-Q (MS) the plasma samples (n = 5) with the highest concentrations of those conjugated metabolites. Concentrations were calculated by integrating the area from their corresponding UV peaks and compared with the UV peak area of a known concentration of their corresponding available parent compounds (eriodictyol and homoeriodictyol). The concentrations calculated were used to compare the MS response for each conjugated-aglycone pair.

[2] = Plasma metabolites and pharmacokinetics after single intake of lemon or orange extract (UPLC-ESI-QTOF-MS, non-compartmental analysis); format: in vivo, human; conditions: for Occurrence Plasma LE (number of volunteers in whom the metabolite was detected): after consuming lemon extract; for Occurrence Plasma LE (number of volunteers in whom the metabolite was detected) / Occurrence Plasma OE (number of volunteers in whom the metabolite was detected): n = 16 volunteers; for Occurrence Plasma OE (number of volunteers in whom the metabolite was detected): after consuming orange extract; for Tmax / Cmax / AUC(0-t): mean ± SD
Excerpt: Secondary endpoints involved the evaluation of post-prandial changes in several biomarkers dealing with metabolism, inflammation, and oxidative stress after a high-fat-high-sugars meal. The design was a randomized pharmacokinetic, double-blind, crossover, single-dose trial consisted of 2 test-phases. The volunteers were randomly allocated into two groups using a computerized random number list. Each group consumed one of the citrus extracts by following a test-phase that lasted for 1 day for blood sampling and urine collection, a 2-week washout period between each test phase, and crossover before consuming the other extract. The volunteers were instructed to avoid the consumption of flavanone-containing products, from a list provided by the researchers, for 1 week before the study and during the wash-out phase (citrus fruit juices, tomatoes, tomato-based sauces (like ‘ketchup’), peppers, almonds, etc.). […] The 3 capsules provided a total of 1.95 g orange extract, containing 260 mg hesperidin, and 3.1 g lemon extract, containing 260 mg eriocitrin. […] Plasma samples were obtained by centrifugation of peripheral venous blood at 14,000× g for 15 min at 4 °C and immediately frozen at −80 °C. Glucose, total cholesterol, HDL-cholesterol, LDL-cholesterol, triglycerides, insulin, homeostatic model assessment insulin resistance (HOMA-IR), gamma-glutamyl transferase (GGT), and alanine aminotransferase (ALT) were determined as previously reported. […] A previously validated method for analyzing phenolic metabolites in biological samples, including flavanone-derived metabolites, was used. […] After centrifugation at 14,000× g for 10 min at 4 °C, the supernatant was evaporated in a speed vacuum concentrator. Finally, samples were re-suspended in 100 µL of methanol, filtered through a 0.22 µm cellulose filters before analysis by UPLC- ESI-QTOF-MS. A targeted screening strategy was applied to identify metabolites that could be present after consuming the citrus extracts. Twenty-eight possible compounds were browsed in all the samples. The list of compounds included the polyphenols present in the extracts, with particular focus on the flavanone rutinosides hesperidin and eriocitrin, their respective aglycones hesperetin, and eriodictyol, as well as their derived phase-II conjugates (glucuronides, sulfates, sulfoglucuronides, etc.). The exact mass of each proposed compound was extracted using an extraction window of 0.01 m/z. The metabolites hesperetin 7-O-glucuronide, hesperetin 3′-O-glucuronide, hesperetin 3-O-sulfate, naringenin 4′-O-glucuronide, and naringenin 7′-O-glucuronide were quantified with their corresponding standards. […] The parent phenolic compounds were quantified with their corresponding standards. In the case of some relevant conjugated metabolites, which standards were not available (eriodictyol and homoeriodictyol conjugates), their quantification was achieved by using relative response factors (RRFs) as previously described. Briefly, RRFs are useful to check the different responses of metabolites in the mass spectrometer vs. their UV signal. While the ionization response of free vs. conjugated forms is usually very different, their UV signal response is quite similar. To this purpose, we injected in a HPLC-DAD-ESI-Q (MS) the plasma samples (n = 5) with the highest concentrations of those conjugated metabolites. Concentrations were calculated by integrating the area from their corresponding UV peaks and compared with the UV peak area of a known concentration of their corresponding available parent compounds (eriodictyol and homoeriodictyol). The concentrations calculated were used to compare the MS response for each conjugated-aglycone pair. Statistical analyses were carried out using the SPSS Software, version 23.0 (SPSS Inc., Chicago, IL, USA). Data are expressed as mean ± SD. The empirical distribution of data with the normality assumption was tested with the Shapiro-Wilk test. […]

[3] = lemon extract (3.1 g, 260 mg eriocitrin)
[4] = orange extract (1.95 g, 260 mg hesperidin)
[5] = after orange (hesperidin) extract
[6] = human, oral, 1.95 g, after orange (hesperidin) extract
[7] = human, oral, 1.95 g, after orange (hesperidin) extract, read-out: AUC0-t
[8] = human, oral, 1.95 g, after orange (hesperidin) extract, read-out: Tmax
[9] = human, oral, 3.1 g, after lemon extract
[10] = human, oral, 3.1 g, after lemon extract, read-out: AUC0-t
[11] = human, oral, 3.1 g, after lemon extract, read-out: Tmax

Row | Compound | Urinary excretion F1 [1, 3] | Urinary excretion Total F ([1]; lemon extract) | Urinary excretion F2 ([1]; lemon extract) | Urinary excretion F3 ([1]; lemon extract) | Urinary excretion F4 ([1]; lemon extract) | Urinary excretion F1 [1, 4] | Urinary excretion Total F ([1]; orange extract) | Urinary excretion F2 ([1]; orange extract) | Urinary excretion F3 ([1]; orange extract) | Urinary excretion F4 ([1]; orange extract) | Occurrence Urine LE (number of volunteers in whom the metabolite was detected) [1] | Occurrence Urine OE (number of volunteers in whom the metabolite was detected) [1] | Occurrence Plasma LE (number of volunteers in whom the metabolite was detected) [2] | Occurrence Plasma OE (number of volunteers in whom the metabolite was detected) [2] | Tmax ([2]; after lemon extract) | Tmax [2, 5] | Cmax [2, 6] | Cmax [2, 9] | AUC(0-t) [2, 10] | Tmax [2, 11] | further results
1 | O=C1CC(c2ccc(O)cc2)Oc2cc(OC3OC(C(=O)O)C(O)C(O)C3O)cc(O)c21 (stereo not shown) [M3, Naringenin 7-O-glucuronide] | 1.0 ± 0.7 µg/mg creatinine | 5.7 ± 6.9 µg/mg creatinine | 2.6 ± 4.0 µg/mg creatinine | 1.7 ± 1.9 µg/mg creatinine | 0.3 ± 0.3 µg/mg creatinine | 0.1 ± 0.1 µg/mg creatinine | 0.7 ± 1.5 µg/mg creatinine | 0.2 ± 0.6 µg/mg creatinine | 0.2 ± 0.2 µg/mg creatinine | 0.2 ± 0.3 µg/mg creatinine | 16 | 16 | 16 | 14 | 5.4 ± 2.5 h | 7.3 ± 2.2 h | 4.7 ± 3.6 nM | 56.7 ± 44.2 nM | 0.203 ± 0.187 µM·h | 5.5 h | AUC(0-t) [2, 7]: 0.0188 ± 0.019 µM·h; Tmax [2, 8]: 7.5 h
2 | Homoeriodictyol sulfate [M10] | 3.8 ± 3.2 µg/mg creatinine | – | 4.0 ± 5.5 µg/mg creatinine | 3.6 ± 4.1 µg/mg creatinine | 0.5 ± 0.4 µg/mg creatinine | – | – | – | – | – | 16 | 0 | 16 | 3 | 6.5 ± 2.2 h | – | – | – | – | – | AUC(0-t) ([2]; after lemon extract): 1.778 ± 2.257 µM·h; Cmax ([2]; after lemon extract): 479 ± 524 nM
3 | COc1ccc(C2CC(=O)c3c(O)cc(O)cc3O2)cc1OC1OC(C(=O)O)C(O)C(O)C1O (stereo not shown) [M8, Hesperetin 3′-O-glucuronide] | 2.1 ± 2.3 µg/mg creatinine | 24.2 ± 23.7 µg/mg creatinine | 10.7 ± 11.3 µg/mg creatinine | 9.2 ± 7.7 µg/mg creatinine | 2.2 ± 2.4 µg/mg creatinine | 0.5 ± 1.5 µg/mg creatinine | 9.9 ± 18.9 µg/mg creatinine | 4.3 ± 11.5 µg/mg creatinine | 3.3 ± 4.2 µg/mg creatinine | 1.8 ± 1.6 µg/mg creatinine | 16 | 16 | 16 | 16 | 6.4 ± 2.0 h | 8.4 ± 1.6 h | 107 ± 128 nM | 198 ± 104 nM | 0.803 ± 0.569 µM·h | 6.5 h | AUC(0-t) [2, 7]: 0.409 ± 0.643 µM·h; Tmax [2, 8]: 8.5 h
4 | O=C1CC(c2ccc(O)c(O)c2)Oc2cc(OC3OC(C(=O)O)C(O)C(O)C3O)cc(O)c21 (stereo not shown) [M1, Eriodictyol glucuronide-1] | 3.2 ± 5.9 µg/mg creatinine | 18.0 ± 28.4 µg/mg creatinine | 9.6 ± 15.5 µg/mg creatinine | 4.5 ± 6.2 µg/mg creatinine | 0.7 ± 0.7 µg/mg creatinine | – | 0.6 ± 0.4 µg/mg creatinine | 0.4 ± 0.3 µg/mg creatinine | 0.1 ± 0.1 µg/mg creatinine | 0.05 ± 0.05 µg/mg creatinine | 16 | 5 | 16 | 3 | 5.9 ± 2.4 h | – | – | 104 ± 85.8 nM | 0.283 ± 0.271 µM·h | 6 h | –
5 | O=C1CC(c2ccc(O)c(OC3OC(C(=O)O)C(O)C(O)C3O)c2)Oc2cc(O)cc(O)c21 (stereo not shown) [M2, Eriodictyol glucuronide-2] | 6.4 ± 11.0 µg/mg creatinine | 46.6 ± 53.6 µg/mg creatinine | 18.0 ± 17.2 µg/mg creatinine | 18.1 ± 19.7 µg/mg creatinine | 4.2 ± 5.7 µg/mg creatinine | 0.1 ± 0.1 µg/mg creatinine | 2.5 ± 4.9 µg/mg creatinine | 0.5 ± 0.8 µg/mg creatinine | 0.5 ± 0.6 µg/mg creatinine | 1.4 ± 3.4 µg/mg creatinine | 16 | 10 | 16 | 7 | 5.9 ± 2.4 h | – | – | 871 ± 868 nM | 3.22 ± 4.12 µM·h | 6 h | –
6 | COc1ccc([C@@H]2CC(=O)c3c(O)cc(O)cc3O2)cc1O [M17, Hesperetin] | – | – | – | – | – | – | – | – | – | – | 5 | 8 | 8 | 3 | – | – | – | – | – | – | –

Source: publication PMC8000041, “New Insights into the Metabolism of the Flavanones Eriocitrin and Hesperidin: A Comparative Human Pharmacokinetic Study” (Antioxidants, 2021)
